Data as given in patent publication US11814444B2, “Cyclic polypeptides for PCSK9 inhibition” (Ra Pharmaceuticals, Inc., priority 2018, dated 2023).
Numbered stars: 1 amine (or outer) side, 2 acyl side, 3 side chain; on linkers, the order of the positions; unused ones are H or OH. Bridge positions count the residues as written; N and C are the ends. Square brackets hold non-standard residues; d marks the D form. Peptide text beside a SMILES is read from it. X2 = O=C([C@@H]1C[C@@H](SC/C=C/C[*:3])CN1[*:1])[*:2]; X6 = CC(=O)Oc1ccc2c(c1)CN([*:1])[C@H](C(=O)[*:2])C2; Ala(1H-tetrazol-5-yl) = N[C@@H](Cc1nnn[nH]1)C(=O)O; Phe(4-CF3) = N[C@@H](Cc1ccc(C(F)(F)F)cc1)C(=O)O; Trp(5-F) = N[C@@H](Cc1c[nH]c2ccc(F)cc12)C(=O)O; Trp(7-aza) = N[C@@H](Cc1c[nH]c2ncccc12)C(=O)O; Pro(cis-4-F) = O=C(O)[C@@H]1C[C@H](F)CN1; Phe(4-F) = N[C@@H](Cc1ccc(F)cc1)C(=O)O; mXylylene = c1cc(C[*:1])cc(C[*:2])c1; Ala(cPr) = N[C@@H](CC1CC1)C(=O)O; Aad = N[C@@H](CCCC(=O)O)C(=O)O; Chg = N[C@H](C(=O)O)C1CCCCC1; Pen = CC(C)(S)[C@H](N)C(=O)O; Tle = CC(C)(C)[C@H](N)C(=O)O; αMeV = CC(C)[C@](C)(N)C(=O)O; NMeS = CN[C@@H](CO)C(=O)O; Dpg = CCCC(N)(CCC)C(=O)O; Ac5c = NC1(C(=O)O)CCCC1; Nva = CCC[C@H](N)C(=O)O; Ac3c = NC1(C(=O)O)CC1; Aib = CC(C)(N)C(=O)O; Mpa = O=C(O)CCS

Experiments:
[1] = biological target: human PCSK9 / human LDLR EGFa domain interaction (Homo sapiens, UniProt Q8NBP7); assay: TR-FRET assay of inhibition of the PCSK9-LDLR protein-protein interaction; assay type: binding; conditions: 20 nM avitag-biotinylated human PCSK9, 20 nM his-tagged human LDLR EGFa domain, 2 hours, room temperature
Method in brief: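 20 nM biotin-avitag PCSK9 + 20 nM His-LDLR EGFa; 5 nM Ulight-SA / 5 nM Eu-anti-His; 2 h RT; HEPES 50 mM, NaCl 150 mM, CaCl2 5 mM, 0.01% BSA, 0.01% P20. Half-maximal inhibition, 4-parameter fit.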

PCSK9 = PCSK9 (Homo sapiens, UniProt Q8NBP7); assay: PCSK9 Alexa FRET Standard assay (displacement of AlexaFluor647 tagged cyclic peptide Reagent A); assay type: binding; conditions: 0.5 nM PCSK9, 20 nM AF cyclic peptide Reagent A
Method in brief: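 TR-FRET displacement: 0.5 nM biotinylated PCSK9 with 1.25 nM Strep-Eu and 20 nM AlexaFluor-tagged cyclic peptide (final) in 50 mM HEPES pH 7.4, 0.15 M NaCl, 5 mM CaCl2, 0.01% BSA, 0.01% P20, ≥2 h at room temperature. IC50 from sigmoidal fit, converted to Ki via peptide KD; falling Eu counts flagged false positives.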

human PCSK9 / human LDLR EGFa domain interaction, sequence (Q8NBP7 153-692): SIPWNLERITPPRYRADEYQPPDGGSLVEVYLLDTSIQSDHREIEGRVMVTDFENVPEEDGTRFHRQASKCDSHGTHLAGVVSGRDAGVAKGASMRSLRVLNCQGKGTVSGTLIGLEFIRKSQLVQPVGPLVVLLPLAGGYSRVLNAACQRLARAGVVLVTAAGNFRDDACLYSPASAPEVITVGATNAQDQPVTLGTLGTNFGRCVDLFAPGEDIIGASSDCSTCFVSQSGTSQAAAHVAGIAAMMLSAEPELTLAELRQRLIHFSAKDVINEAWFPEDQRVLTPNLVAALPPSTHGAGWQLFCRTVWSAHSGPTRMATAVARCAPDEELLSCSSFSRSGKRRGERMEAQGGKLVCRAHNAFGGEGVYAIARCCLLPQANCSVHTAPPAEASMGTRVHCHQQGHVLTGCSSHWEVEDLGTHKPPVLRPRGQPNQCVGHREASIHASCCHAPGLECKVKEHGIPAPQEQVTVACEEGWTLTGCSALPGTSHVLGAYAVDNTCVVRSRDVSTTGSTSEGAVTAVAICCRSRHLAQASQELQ
human PCSK9 / human LDLR EGFa domain interaction, sequence (Q8NBP7 31-152 partner limits assumed): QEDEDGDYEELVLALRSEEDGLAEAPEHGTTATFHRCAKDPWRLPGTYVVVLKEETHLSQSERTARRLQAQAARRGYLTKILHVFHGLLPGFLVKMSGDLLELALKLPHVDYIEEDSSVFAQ
PCSK9, sequence (Q8NBP7 153-692): as the sequence (Q8NBP7 153-692) above

Row | SMILES | IC50 [1] [nM] | IC50 (PCSK9) [nM]
1 | CCC[C@@H]1NC(=O)[C@H](Cc2ccc(O)cc2)NC(=O)[C@H](CCC(=O)O)NC(=O)[C@H](C2CCCCC2)NC(=O)[C@H](Cc2c[nH]c3ncccc23)NC(=O)[C@H]([C@@H](C)O)NC(=O)[C@H](Cc2c[nH]cn2)NC(=O)[C@H](Cc2ccc(O)cc2)NC(=O)[C@H](C(C)(C)C)NC(=O)CCSCc2cccc(c2)CSC[C@@H](C(N)=O)NC(=O)[C@H]([C@@H](C)O)NC1=O [Compound 273] ([Mpa][Tle]YHT[Trp(7-aza)][Chg]EY[Nva]TC-NH2; linker 1-12 via mXylylene) | 100 to 1000 | 100 to 1000
2 | CCCC1(CCC)NC(=O)[C@H](Cc2c[nH]c3ncccc23)NC(=O)[C@H]([C@@H](C)O)NC(=O)[C@@H]2CCCN2C(=O)[C@H](Cc2ccc(O)cc2)NC(=O)[C@H](C(C)(C)C)NC(=O)[C@@H](NC(C)=O)CSCc2cccc(c2)CSC[C@H](C(N)=O)NC(=O)[C@H]([C@@H](C)O)NC(=O)[C@](C)(C(C)C)NC(=O)[C@H](Cc2ccc(O)cc2)NC(=O)[C@H](C)NC1=O [Compound 188] (Ac-C[Tle]YPT[Trp(7-aza)][Dpg]AY[αMeV]T[dC]-NH2; linker 1-12 via mXylylene) | 1000 to 21000 | 1000 to 21000
3 | CC(=O)N[C@H]1CSCc2cccc(c2)CSC[C@H](C(N)=O)NC(=O)[C@H]([C@@H](C)O)NC(=O)[C@](C)(C(C)C)NC(=O)[C@H](Cc2ccc(O)cc2)NC(=O)[C@H](C)NC(=O)C2(CC2)NC(=O)[C@H](Cc2c[nH]c3ncccc23)NC(=O)[C@H]([C@@H](C)O)NC(=O)[C@@H]2CCCN2C(=O)[C@H](Cc2ccc(O)cc2)NC(=O)[C@H](C(C)(C)C)NC1=O [Compound 191] (Ac-C[Tle]YPT[Trp(7-aza)][Ac3c]AY[αMeV]T[dC]-NH2; linker 1-12 via mXylylene) | 1 to 100 | 1 to 100
4 | CCC[C@@H]1NC(=O)[C@H](Cc2ccc(O)cc2)NC(=O)[C@H](CCC(=O)O)NC(=O)[C@H](CC2CC2)NC(=O)[C@H](Cc2c[nH]c3ncccc23)NC(=O)[C@H]([C@@H](C)O)NC(=O)[C@H](Cc2c[nH]cn2)NC(=O)[C@H](Cc2ccc(O)cc2)NC(=O)[C@H](C(C)(C)C)NC(=O)CCSCc2cccc(c2)CSC[C@@H](C(N)=O)NC(=O)[C@H]([C@@H](C)O)NC1=O [Compound 264] ([Mpa][Tle]YHT[Trp(7-aza)][Ala(cPr)]EY[Nva]TC-NH2; linker 1-12 via mXylylene) | 100 to 1000 | 1000 to 21000
5 | CCC[C@@H]1NC(=O)[C@H](Cc2ccc(O)cc2)NC(=O)[C@H](CCC(=O)O)NC(=O)[C@H](Cc2ccc(F)cc2)NC(=O)[C@H](Cc2c[nH]c3ncccc23)NC(=O)[C@H]([C@@H](C)O)NC(=O)[C@H](Cc2c[nH]cn2)NC(=O)[C@H](Cc2ccc(O)cc2)NC(=O)[C@H](C(C)(C)C)NC(=O)CCSCc2cccc(c2)CSC[C@@H](C(N)=O)NC(=O)[C@H]([C@@H](C)O)NC1=O [Compound 265] ([Mpa][Tle]YHT[Trp(7-aza)][Phe(4-F)]EY[Nva]TC-NH2; linker 1-12 via mXylylene) | 100 to 1000 | 1000 to 21000
6 | CCC[C@@H]1NC(=O)[C@H](Cc2c[nH]c3ncccc23)NC(=O)[C@H]([C@@H](C)O)NC(=O)[C@H](Cc2c[nH]cn2)NC(=O)[C@H](Cc2ccc(O)cc2)NC(=O)[C@H](C(C)(C)C)NC(=O)CCSCc2cccc(c2)CSC[C@@H](C(N)=O)NC(=O)[C@H]([C@@H](C)O)NC(=O)[C@H](CCC)NC(=O)[C@H](Cc2ccc(O)cc2)NC(=O)[C@H](Cc2nnn[nH]2)NC1=O [Compound 253] ([Mpa][Tle]YHT[Trp(7-aza)][Nva][Ala(1H-tetrazol-5-yl)]Y[Nva]TC-NH2; linker 1-12 via mXylylene) | 100 to 1000 | 1000 to 21000
7 | CCC[C@H](NC(C)=O)C(=O)N[C@H]1CSCc2cccc(c2)CSC[C@@H](C(N)=O)NC(=O)[C@H](Cc2c[nH]c3ccc(F)cc23)NC(=O)[C@@H]2C[C@H](F)CN2C(=O)[C@H](CCCNC(=N)N)NC(=O)CNC(=O)[C@H](CO)N(C)C(=O)[C@H](Cc2c[nH]c3ccc(F)cc23)NC(=O)[C@H](Cc2ccc(O)cc2)NC(=O)[C@H](C(C)(C)C)NC(=O)[C@H]([C@@H](C)CC)NC(=O)[C@H]([C@@H](C)O)NC1=O [Compound 337] (Ac-[Nva]CTI[Tle]Y[Trp(5-F)][NMeS]GR[Pro(cis-4-F)][Trp(5-F)]C-NH2; linker 2-13 via mXylylene) | 1 to 100 | 1 to 100
8 | CCC[C@@H]1NC(=O)[C@H](Cc2c[nH]c3ncccc23)NC(=O)[C@H]([C@@H](C)O)NC(=O)[C@H](Cc2c[nH]cn2)NC(=O)[C@H](Cc2ccc(O)cc2)NC(=O)[C@H](C(C)(C)C)NC(=O)CCSCc2cccc(c2)CSC[C@@H](C(N)=O)NC(=O)[C@H]([C@@H](C)O)NC(=O)[C@H](CCC)NC(=O)[C@H](Cc2ccc(O)cc2)NC(=O)[C@H](CCCC(=O)O)NC1=O [Compound 259] ([Mpa][Tle]YHT[Trp(7-aza)][Nva][Aad]Y[Nva]TC-NH2; linker 1-12 via mXylylene) | 100 to 1000 | 1000 to 21000
9 | CC(=O)N[C@H]1CSCc2cccc(c2)CSC[C@@H](C(N)=O)NC(=O)[C@H]([C@@H](C)O)NC(=O)[C@](C)(C(C)C)NC(=O)[C@H](Cc2ccc(O)cc2)NC(=O)[C@H](C)NC(=O)C2(CCCC2)NC(=O)[C@H](Cc2c[nH]c3ncccc23)NC(=O)[C@H]([C@@H](C)O)NC(=O)[C@@H]2CCCN2C(=O)[C@H](Cc2ccc(O)cc2)NC(=O)[C@H](C(C)(C)C)NC1=O [Compound 184] (Ac-C[Tle]YPT[Trp(7-aza)][Ac5c]AY[αMeV]TC-NH2; linker 1-12 via mXylylene) | 100 to 1000 | 1 to 100
10 | CCC[C@@H]1NC(=O)[C@H](Cc2c[nH]c3ncccc23)NC(=O)[C@H]([C@@H](C)O)NC(=O)[C@@H]2CCCN2C(=O)[C@H](Cc2ccc(O)cc2)NC(=O)[C@H](C(C)(C)C)NC(=O)[C@@H](NC(C)=O)CCCC(=O)NCCCC[C@@H](C(N)=O)NC(=O)[C@H]([C@@H](C)O)NC(=O)[C@H](CCC)NC(=O)[C@@H]2Cc3ccc(OC(C)=O)cc3CN2C(=O)[C@H](C)NC1=O [Compound 074] (Ac-[Aad][Tle]YPT[Trp(7-aza)][Nva]A[X6][Nva]TK-NH2; lactam 1-12) | 100 to 1000 | 100 to 1000
11 | CC(=O)N[C@H]1CSCc2cccc(c2)CSC[C@H](C(N)=O)NC(=O)[C@H]([C@@H](C)O)NC(=O)[C@](C)(C(C)C)NC(=O)[C@H](Cc2ccc(O)cc2)NC(=O)[C@H](C)NC(=O)C2(CCCC2)NC(=O)[C@H](Cc2c[nH]c3ncccc23)NC(=O)[C@H]([C@@H](C)O)NC(=O)[C@@H]2CCCN2C(=O)[C@H](Cc2ccc(O)cc2)NC(=O)[C@H](C(C)(C)C)NC1=O [Compound 186] (Ac-C[Tle]YPT[Trp(7-aza)][Ac5c]AY[αMeV]T[dC]-NH2; linker 1-12 via mXylylene) | 1 to 100 | 1 to 100
12 | CC(=O)N[C@H]1CCCCNC(=O)CCC[C@@H](C(N)=O)NC(=O)[C@H]([C@@H](C)O)NC(=O)[C@](C)(C(C)C)NC(=O)[C@H](Cc2ccc(O)cc2)NC(=O)[C@H](C)NC(=O)C(C)(C)NC(=O)[C@H](Cc2c[nH]c3ncccc23)NC(=O)[C@H]([C@@H](C)O)NC(=O)[C@@H]2C[C@@H]3CN2C(=O)[C@H](Cc2ccc(O)cc2)NC(=O)[C@@H](NC1=O)C(C)(C)SC/C=C/CS3 [Compound 350] (Ac-K[Pen]Y[X2]T[Trp(7-aza)][Aib]AY[αMeV]T[Aad]-NH2; lactam 1-12; thioether 2-4) | 100 to 1000 | 100 to 1000
13 | CCC[C@@H]1NC(=O)[C@H](Cc2c[nH]c3ncccc23)NC(=O)[C@H]([C@@H](C)O)NC(=O)[C@H](Cc2c[nH]cn2)NC(=O)[C@H](Cc2ccc(O)cc2)NC(=O)[C@H](C(C)(C)C)NC(=O)CCSCc2cccc(c2)CSC[C@@H](C(N)=O)NC(=O)[C@H]([C@@H](C)O)NC(=O)[C@H](CCC)NC(=O)[C@H](Cc2c[nH]c3ccc(F)cc23)NC(=O)[C@H](CCC(=O)O)NC1=O [Compound 261] ([Mpa][Tle]YHT[Trp(7-aza)][Nva]E[Trp(5-F)][Nva]TC-NH2; linker 1-12 via mXylylene) | 1000 to 21000 | 1000 to 21000
14 | CCC[C@@H]1NC(=O)[C@H](Cc2c[nH]c3ncccc23)NC(=O)[C@H]([C@@H](C)O)NC(=O)[C@H](Cc2c[nH]cn2)NC(=O)[C@H](Cc2ccc(O)cc2)NC(=O)[C@H](C(C)(C)C)NC(=O)CCSCc2cccc(c2)CSC[C@@H](C(N)=O)NC(=O)[C@H]([C@@H](C)O)NC(=O)[C@H](CCC)NC(=O)[C@H](Cc2ccc(C(F)(F)F)cc2)NC(=O)[C@H](CCC(=O)O)NC1=O [Compound 260] ([Mpa][Tle]YHT[Trp(7-aza)][Nva]E[Phe(4-CF3)][Nva]TC-NH2; linker 1-12 via mXylylene) | 1000 to 21000 | 1000 to 21000
15 | CCC[C@@H]1NC(=O)[C@H](Cc2c[nH]c3ncccc23)NC(=O)[C@H]([C@@H](C)O)NC(=O)[C@H](Cc2c[nH]cn2)NC(=O)[C@H](Cc2ccc(O)cc2)NC(=O)[C@H](C(C)(C)C)NC(=O)CCSCc2cccc(c2)CSC[C@@H](C(N)=O)NC(=O)[C@H]([C@@H](C)O)NC(=O)[C@H](CCC)NC(=O)[C@H](Cc2ccc(O)cc2)NC(=O)[C@H](CC(=O)O)NC1=O [Compound 254] ([Mpa][Tle]YHT[Trp(7-aza)][Nva]DY[Nva]TC-NH2; linker 1-12 via mXylylene) | 100 to 1000 | 1000 to 21000
16 | CCC[C@@H]1NC(=O)[C@H](Cc2c[nH]c3ncccc23)NC(=O)[C@H]([C@@H](C)O)NC(=O)[C@H](Cc2c[nH]cn2)NC(=O)[C@H](Cc2ccc(O)cc2)NC(=O)[C@H](C(C)(C)C)NC(=O)[C@@H](NC(C)=O)CSCc2cccc(c2)CSC[C@@H](C(N)=O)NC(=O)[C@H]([C@@H](C)O)NC(=O)[C@H](CCC)NC(=O)[C@H](Cc2ccc(O)cc2)NC(=O)[C@H](CCC(=O)O)NC1=O [Compound 235] (Ac-C[Tle]YHT[Trp(7-aza)][Nva]EY[Nva]TC-NH2; linker 1-12 via mXylylene) | 100 to 1000 | 1000 to 21000
